target: T1, Recombinant human KIF18A (1-467 His-tagged) protein (Homo sapiens, UniProt Q8NI77); assay: KIF18A Enzyme Assay: microtubule-stimulated ATPase activity (ADP-Glo); assay type: biochemical; settings: 30 nM KIF18A, 75 μM ATP
T1 construct: Recombinant human KIF18A (1-467 His-tagged) protein; His; made in house
Outline: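 ADP-Glo luminescence reports ADP produced by His-tagged human KIF18A motor domain (1-467, insect-cell expressed) with microtubules and ATP.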

T1 sequence (Q8NI77 1-467): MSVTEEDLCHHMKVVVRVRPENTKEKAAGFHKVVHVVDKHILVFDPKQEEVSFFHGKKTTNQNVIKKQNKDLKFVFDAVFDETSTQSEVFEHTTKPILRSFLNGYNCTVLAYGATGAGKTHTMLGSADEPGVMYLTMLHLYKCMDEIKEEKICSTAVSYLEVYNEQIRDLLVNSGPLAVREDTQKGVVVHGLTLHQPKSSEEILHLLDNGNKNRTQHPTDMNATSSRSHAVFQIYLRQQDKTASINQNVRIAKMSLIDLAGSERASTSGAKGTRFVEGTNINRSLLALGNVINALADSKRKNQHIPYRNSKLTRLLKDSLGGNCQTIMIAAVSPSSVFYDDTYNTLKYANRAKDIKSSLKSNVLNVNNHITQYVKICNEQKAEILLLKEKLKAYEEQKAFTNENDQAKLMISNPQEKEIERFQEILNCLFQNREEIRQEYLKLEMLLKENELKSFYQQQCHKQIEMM
T1 sequence (P02550 whole entry partner): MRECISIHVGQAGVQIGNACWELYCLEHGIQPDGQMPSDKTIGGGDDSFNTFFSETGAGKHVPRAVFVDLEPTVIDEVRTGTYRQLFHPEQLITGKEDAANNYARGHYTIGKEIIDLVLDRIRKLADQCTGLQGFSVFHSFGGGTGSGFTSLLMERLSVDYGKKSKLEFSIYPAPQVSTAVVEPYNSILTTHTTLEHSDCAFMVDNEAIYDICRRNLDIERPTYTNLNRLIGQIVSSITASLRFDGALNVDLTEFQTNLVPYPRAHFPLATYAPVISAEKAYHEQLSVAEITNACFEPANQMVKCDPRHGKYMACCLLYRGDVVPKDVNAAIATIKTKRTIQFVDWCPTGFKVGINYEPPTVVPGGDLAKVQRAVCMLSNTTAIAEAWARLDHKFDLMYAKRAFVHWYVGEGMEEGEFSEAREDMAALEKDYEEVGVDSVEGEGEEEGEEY
T1 sequence (P02554 whole entry partner): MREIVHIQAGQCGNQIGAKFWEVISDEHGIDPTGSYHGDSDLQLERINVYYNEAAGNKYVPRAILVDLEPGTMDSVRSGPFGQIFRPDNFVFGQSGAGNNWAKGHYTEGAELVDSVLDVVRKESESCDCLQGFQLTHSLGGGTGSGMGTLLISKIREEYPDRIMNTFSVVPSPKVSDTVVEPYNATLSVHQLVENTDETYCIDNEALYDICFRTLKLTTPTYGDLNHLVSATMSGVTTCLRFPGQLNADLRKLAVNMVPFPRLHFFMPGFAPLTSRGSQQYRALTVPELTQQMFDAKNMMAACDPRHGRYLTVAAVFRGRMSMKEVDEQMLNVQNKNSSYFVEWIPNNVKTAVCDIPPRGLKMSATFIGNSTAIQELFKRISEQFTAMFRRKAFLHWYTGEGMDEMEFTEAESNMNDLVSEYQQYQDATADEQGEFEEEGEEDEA

SMILES	IC50 [nM]
Cc1cnc(-c2cccc(NC(=O)c3ccc(NC(C)(C)CO)nc3N3CCC4(CC3)CC4)c2)o1 [Example 111-6, 6-((1-hydroxy-2-methylpropan-2-yl)amino)-N-(3-(5-methyloxazol-2-yl)phenyl)-2-(6-azaspiro[2.5]octan-6-yl)nicotinamide]	135
Cc1noc(-c2cccc(NC(=O)c3ccc(NC(C)(C)CO)nc3N3CCC4(CC3)CC4)c2)n1 [Example 111-7, 6-((1-hydroxy-2-methylpropan-2-yl)amino)-N-(3-(3-methyl-1,2,4-oxadiazol-5-yl)phenyl)-2-(6-azaspiro[2.5]octan-6-yl)nicotinamide]	417
Cn1nccc1-c1cccc(NC(=O)c2ccc(NC(C)(C)CO)nc2N2CCC3(CC2)CC3)c1 [Example 111-8, 6-((1-hydroxy-2-methylpropan-2-yl)amino)-N-(3-(1-methyl-1H-pyrazol-5-yl)phenyl)-2-(6-azaspiro[2.5]octan-6-yl)nicotinamide]	542
Cn1ccnc1-c1cccc(NC(=O)c2ccc(NC(C)(C)CO)nc2N2CCC3(CC2)CC3)c1 [Example 111-9, 6-((1-hydroxy-2-methylpropan-2-yl)amino)-N-(3-(1-methyl-1H-imidazol-2-yl)phenyl)-2-(6-azaspiro[2.5]octan-6-yl)nicotinamide]	437
Cc1ccc(NC(=O)c2ccc(NC(C)(C)CO)nc2N2CCC3(CC2)CC3)cc1-c1ccccn1 [Example 111-10, 6-((1-hydroxy-2-methylpropan-2-yl)amino)-N-(4-methyl-3-(pyridin-2-yl)phenyl)-2-(6-azaspiro[2.5]octan-6-yl)nicotinamide]	303
Cc1ccc(NC(=O)c2ccc(NC(C)(C)CO)nc2N2CCC3(CC2)CC3)cc1-c1cccnc1 [Example 111-11, 6-((1-hydroxy-2-methylpropan-2-yl)amino)-N-(4-methyl-3-(pyridin-3-yl)phenyl)-2-(6-azaspiro[2.5]octan-6-yl)nicotinamide]	306
Cc1ccc(NC(=O)c2ccc(NC(C)(C)CO)nc2N2CCC3(CC2)CC3)cc1-c1ccncc1 [Example 111-12, 6-((1-hydroxy-2-methylpropan-2-yl)amino)-N-(4-methyl-3-(pyridin-4-yl)phenyl)-2-(6-azaspiro[2.5]octan-6-yl)nicotinamide]	386
Cc1cncc(-c2cc(NC(=O)c3ccc(NC(C)(C)CO)nc3N3CCC4(CC3)CC4)ccc2C)c1 [Example 111-13, 6-((1-hydroxy-2-methylpropan-2-yl)amino)-N-(4-methyl-3-(5-methylpyridin-3-yl)phenyl)-2-(6-azaspiro[2.5]octan-6-yl)nicotinamide]	165
CC(C)(C)NS(=O)(=O)c1cc(NC(=O)c2ccc(NC(C)(C)CO)nc2N2CCC3(CC2)CC3)cc(-c2ccco2)c1 [Example 112, N-(3-(N-(tert-butyl)sulfamoyl)-5-(furan-2-yl)phenyl)-6-((1-hydroxy-2-methylpropan-2-yl)amino)-2-(6-azaspiro[2.5]octan-6-yl)nicotinamide]	170
CC(C)(C)NS(=O)(=O)c1cc(NC(=O)c2ccc(NC(C)(C)CO)nc2N2CCC3(CC2)CC3)cc(C2CC2)c1 [Example 112-2, N-(3-(N-(tert-butyl)sulfamoyl)-5-cyclopropylphenyl)-6-((1-hydroxy-2-methylpropan-2-yl)amino)-2-(6-azaspiro[2.5]octan-6-yl)nicotinamide]	633
CC(C)(C)NS(=O)(=O)c1cc(NC(=O)c2ccc(NC(C)(C)CO)nc2N2CCC3(CC2)CC3)cc(-c2cccnc2)c1 [Example 112-3, N-(3-(N-(tert-butyl)sulfamoyl)-5-(pyridin-3-yl)phenyl)-6-((1-hydroxy-2-methylpropan-2-yl)amino)-2-(6-azaspiro[2.5]octan-6-yl)nicotinamide]	561
CC(C)(C)NS(=O)(=O)c1cccc(NC(=O)c2ccc(CS(C)(=O)=O)nc2N2CCC3(CC2)CC3)c1 [Example 113, N-(3-(N-(tert-butyl)sulfamoyl)phenyl)-6-((methylsulfonyl)methyl)-2-(6-azaspiro[2.5]octan-6-yl)nicotinamide]	103
CC(C)(C)NS(=O)(=O)c1cccc(NC(=O)c2ccncc2N2CCC3(CC2)CC3)c1 [Example 114, N-(3-(N-(tert-butyl)sulfamoyl)phenyl)-3-(6-azaspiro[2.5]octan-6-yl)isonicotinamide]	114
O=C(Nc1cccc(S(=O)(=O)C2CCCC2)c1)c1ccncc1N1CCC2(CC1)CC2 [Example 114-1, N-(3-(cyclopentylsulfonyl)phenyl)-3-(6-azaspiro[2.5]octan-6-yl)isonicotinamide]	253
O=C(Nc1cccc(S(=O)(=O)C2CCCC2)c1)c1ccncc1N1CCC2(CC1)CC2(F)F [Example 114-2, N-(3-(cyclopentylsulfonyl)phenyl)-3-(1,1-difluoro-6-azaspiro[2.5]octan-6-yl)isonicotinamide]	735
Cc1ccc(NC(=O)c2ccncc2N2CCC3(CC2)CC3)cc1C(=O)N1CCCC(F)(F)C1 [Example 115, N-(3-(3,3-difluoropiperidine-1-carbonyl)-4-methylphenyl)-3-(6-azaspiro[2.5]octan-6-yl)isonicotinamide]	606
O=C(Nc1ccc(Br)c(C(=O)N2CCCC(F)(F)C2)c1)c1ccncc1N1CCC2(CC1)CC2 [Example 115-1, N-(4-bromo-3-(3,3-difluoropiperidine-1-carbonyl)phenyl)-3-(6-azaspiro[2.5]octan-6-yl)isonicotinamide]	577
O=C(Nc1ccc(Cl)c(C(=O)N2CCCC(F)(F)C2)c1)c1ccncc1N1CCC2(CC1)CC2 [Example 115-2, N-(4-chloro-3-(3,3-difluoropiperidine-1-carbonyl)phenyl)-3-(6-azaspiro[2.5]octan-6-yl)isonicotinamide]	735
O=C(Nc1ccc(F)c(C(=O)N2CCCC(F)(F)C2)c1)c1ccncc1N1CCC2(CC1)CC2 [Example 115-3, N-(3-(3,3-difluoropiperidine-1-carbonyl)-4-fluorophenyl)-3-(6-azaspiro[2.5]octan-6-yl)isonicotinamide]	1670
Cc1ccc(NC(=O)c2ccncc2N2CCC3(CC2)CC3)cc1C(=O)N1CCC(F)(F)CC1 [Example 115-4, N-(3-(4,4-difluoropiperidine-1-carbonyl)-4-methylphenyl)-3-(6-azaspiro[2.5]octan-6-yl)isonicotinamide]	1540
O=C(Nc1cccc(C(=O)N2CCCC(F)(F)C2)c1)c1ccncc1N1CCC2(CC1)CC2 [Example 115-5, N-(3-(3,3-difluoropiperidine-1-carbonyl)phenyl)-3-(6-azaspiro[2.5]octan-6-yl)isonicotinamide]	1680

— patent US12540129B2, “KIF18A inhibitors” (AMGEN INC., priority 2019, dated 2026)
